The text below walks through data of patent US8546410B2, “Heteroaryl-fused macrocyclic pyrimidine derivatives” (AbbVie Inc., priority 2008, dated 2013).

Molecules are shown by their SMILES.

The target of test [1] is T1, histamine H4 receptor (Homo sapiens, UniProt Q9H3N8).
T1 construct: expressed in transfected cells
The test can be described thus: In vitro histamine H4 potency in FLIPR (Ca2+ flux, Fluo-4, HEK-293 cells coexpressing Gαqi5). As to conditions: Kb values for antagonists and inverse agonists, EC50 values for partial agonists. It counts as cell-based. The source says: There are many methods available to show the effectiveness of compounds as histamine H4 receptor ligands. Histamine H4 receptors from mammalian species have been cloned. Methods to clone, express, and assess the potency and functional activity of such cloned genes are well known to those skilled in the art of molecular biology. Examples of methods of cloning and expressing histamine H4 receptors, and of assessing the potency and functional activity are described in Nguyen, et al. Molecular Pharmacology (2001) vol. 59 pp. 427-433; Zhu, et al. Molecular Pharmacology (2001) vol. 59 pp. 434-441; Coge, et al., Biochemical and Biophysical Research Communications (2001) vol. 284, pp. 301-309; Liu, et al. Molecular Pharmacology (2001) vol. 59 pp. 420-426; Liu, et al. Journal of Pharmacology and Experimental Therapeutics (2001) v. 299, pp. 121-130; and Thurmond, et al. Journal of Pharmacology and Experimental Therapeutics (2004) v. 309, pp. 404-413. In the present case, to determine the potency and effectiveness of representative compounds of this invention as histamine-H4 receptor ligands (H4 receptor ligands), the following tests were conducted according to previously described methods (see Esbenshade, et al., Biochemical Pharmacology (2004), vol. 68, pp. 933-945, and in Krueger, et al., Journal of Pharmacology and Experimental Therapeutics (2005) v. 314, pp. 271-281): histamine H4 receptors were cloned and stably expressed in HEK-293 (human embryonic kidney) cells coexpressing a Gαqi5. Before testing, cells are loaded with a Ca^+2 sensitive fluorescent dye, in this case Fluo-4. In the case of partial agonist or agonist ligands, addition of compound to the cells leads to the increase in intracellular Ca^+2 which is detected by FLIPR (Fluorescence Imaging Plate Reader; Molecular Devices, Sunnyvale, Calif.) technology. In a similar manner, compounds that are antagonists or inverse agonists, block the increase in fluorescence induced by the full histamine H4 agonist histamine, and partial agonists reduce the amount of fluorescence induced by the full histamine H4 agonist histamine. The fluorescence intensities measured before addition of the test compound are subtracted from the fluorescence intensities at later time points. Peak response values determined at each concentration of ligand are expressed as a percentage of the response obtained with the full agonist histamine. Concentration versus response data are analyzed to obtain compound potency as Kb values for antagonists and inverse agonists and as EC50 values for partial agonists.
For orientation: A change in cytosolic calcium serves as a functional read-out for many receptors and channels.

The target in test [2] is T1, histamine H4 receptor. The test can be described thus: 3H-histamine competition binding assay, membranes of transfected HEK-293 cells. As to conditions: displacement of [3H]-histamine, 25° C., 1 hour; Ki by Cheng-Prusoff equation; read-out: Potency. As for the experimental part: The potency of compounds of the invention in displacing ^3H-histamine in competition binding assays is assessed by methods described in Esbenshade, et al., Biochemical Pharmacology (2004), vol. 68, pp. 933-945. In this assay, membranes were prepared from HEK-293 cells transiently transfected with the pCINeo expression vector harboring the histamine H4 receptor by homogenization of the cells on ice in TE buffer (50 mM Tris-HCl buffer, pH 7.4, containing 5 mM EDTA), 1 mM benzamidine, 2 μg/ml aprotinin, 1 μg/ml leupeptin, and 1 μg/ml pepstatin. The homogenate was centrifuged at 40,000 g for 20 minutes at 4° C. This step was repeated, and the resulting pellet was resuspended in TE buffer. Aliquots were frozen at −70° C. until needed. On the day of assay, membranes were thawed and diluted with TE buffer. Competition radioligand binding assays were performed with increasing concentrations of test compound in the presence of [^3H]-histamine incubated at 25° C. for 1 hour in a total volume of 0.5 ml of 50 mM Tris, 5 mM EDTA, pH 7.4. All binding reactions were terminated by filtration under vacuum onto polyethylenimine (0.3%) presoaked Unifilters (PerkinElmer Life Sciences) or Whatman GF/B filters (Whatman, Clifton, N.J.) followed by three brief washes with 4 ml of ice-cold TE buffer. Bound radiolabel was determined by liquid scintillation counting. For all of the radioligand competition binding assays, IC50 values and Hill slopes were determined by Hill transformation of the data and Ki values were determined by the Cheng-Prusoff equation. The following table of representative histamine H4 receptor ligands is provided, along with potency values: […]
(In general: Loss of bound radioactivity is the signal in a displacement assay; it reports binding, not function.)

T1 sequence (Q9H3N8 whole entry, species assumed): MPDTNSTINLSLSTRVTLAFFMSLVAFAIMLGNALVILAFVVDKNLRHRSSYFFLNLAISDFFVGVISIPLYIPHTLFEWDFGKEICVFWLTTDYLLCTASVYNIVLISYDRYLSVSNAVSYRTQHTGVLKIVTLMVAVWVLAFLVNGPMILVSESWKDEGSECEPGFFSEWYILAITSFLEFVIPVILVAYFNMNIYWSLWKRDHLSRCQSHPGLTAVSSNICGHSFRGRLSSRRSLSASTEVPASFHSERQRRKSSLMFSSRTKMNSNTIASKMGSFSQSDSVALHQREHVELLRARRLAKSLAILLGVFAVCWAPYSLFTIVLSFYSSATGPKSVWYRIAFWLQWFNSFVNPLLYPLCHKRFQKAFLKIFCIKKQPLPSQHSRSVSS

As for `Nc1nc2c(c(N3CC[C@@H](N)C3)n1)CCCc1sccc1-2` [Example 2, 4-[(3R)-3-aminopyrrolidin-1-yl]-6,7-dihydro-5H-thieno[2′,3′:6,7]cyclohepta[1,2-d]pyrimidin-2-amine], at histamine H4 receptor [1], the “Potency” value is 6.6 nM. Further, the Ki on histamine H4 receptor [2] was 10 nM.
Taken in the same sequence, the figures for `Nc1nc2c(c(N3C[C@H]4CCCN[C@H]4C3)n1)CCCc1sccc1-2` [Example 18, 4-[(4aR,7aR)-octahydro-6H-pyrrolo [3,4-b]pyridin-6-yl]-6,7-dihydro-5H-thieno[2′,3′:6,7]cyclohepta[1,2-d]pyrimidin-2-amine] were 6 nM and 1.8 nM.
Take `Nc1nc2c(c(N3CC[C@@H](N)C3)n1)CCCc1cccnc1-2` [Example 15, 4-[(3R)-3-aminopyrrolidin-1-yl]-6,7-dihydro-5H-pyrido[3′,2′:6,7]cyclohepta[1,2-d]pyrimidin-2-amine]: the “Potency” value at histamine H4 receptor [1] is 35 nM.
On the same count and under the same terms, the result for `Cc1cc2c(o1)CCCc1c-2nc(N)nc1N1CC2CCCNC2C1` (stereo not shown) [Example 5, 9-methyl-4-octahydro-6H-pyrrolo[3,4-b]pyridin-6-yl-6,7-dihydro-5H-furo[2′,3′:6,7]cyclohepta[1,2-d]pyrimidin-2-amine] reads 34 nM.
Consider `Nc1nc2c(c(N3CC4CCCNC4C3)n1)CCCc1sccc1-2` (stereo not shown) [Example 1, 4-octahydro-6H-pyrrolo[3,4-b]pyridin-6-yl-6,7-dihydro-5H-thieno[2′,3′:6,7]cyclohepta[1,2-d]pyrimidin-2-amine], for which the “Potency” value on histamine H4 receptor [1] was found to be 17 nM. The Ki at histamine H4 receptor [2] came out at 6 nM.
On to `CC(C)(C)n1ncc2c1CCCc1c-2nc(N)nc1N1CC2CCCNC2C1` (stereo not shown) [Example 10, 8-tert-butyl-4-octahydro-6H-pyrrolo[3,4-b]pyridin-6-yl-5,6,7,8-tetrahydropyrazolo[3′,4′:6,7]cyclohepta[1,2-d]pyrimidin-2-amine], for which, at histamine H4 receptor [1], the “Potency” value was found to be 187 nM. Further, on histamine H4 receptor [2], the Ki was 44 nM.
Take `CN1CCN(c2nc(N)nc3c2CCCc2cccnc2-3)CC1` [Example 14, 4-(4-methylpiperazin-1-yl)-6,7-dihydro-5H-pyrido[3′,2′:6,7]cyclohepta[1,2-d]pyrimidin-2-amine]: the “Potency” value at histamine H4 receptor [1] was found to be 37 nM.
The same measure, in the same setting: in the case of `Cc1cc2c(o1)CCCc1c-2nc(N)nc1N1CC[C@@H](N)C1` [Example 6, 4-[(3R)-3-aminopyrrolidin-1-yl]-9-methyl-6,7-dihydro-5H-furo[2′,3′:6,7]cyclohepta[1,2-d]pyrimidin-2-amine] it was 252 nM; in that of `Cc1noc2c1-c1nc(N)nc(N3CCN(C)CC3)c1CCC2` [Example 16, 10-methyl-4-(4-methylpiperazin-1-yl)-6,7-dihydro-5H-isoxazolo[5′,4′:6,7]cyclohepta[1,2-d]pyrimidin-2-amine], 2350 nM.
Turning to `Nc1nc2c(c(N3CC4CCCNC4C3)n1)CCCc1ccoc1-2` (stereo not shown) [Example 7, 4-octahydro-6H-pyrrolo[3,4-b]pyridin-6-yl-6,7-dihydro-5H-furo[3′,2′:6,7]cyclohepta[1,2-d]pyrimidin-2-amine], the “Potency” value at histamine H4 receptor [1] worked out at 20 nM. Also, the Ki on histamine H4 receptor [2] was 165 nM.
The like results for `Nc1nc2c(c(N3CC4CCCNC4C3)n1)CCCc1occc1-2` (stereo not shown) [Example 4, 4-octahydro-6H-pyrrolo[3,4-b]pyridin-6-yl-6,7-dihydro-5H-furo[2′,3′:6,7]cyclohepta[1,2-d]pyrimidin-2-amine] were, in that order, 14 nM and 12 nM.
For the compound `Cc1noc2c1-c1nc(N)nc(N3CC[C@@H](N)C3)c1CCC2` [Example 17, 4-[(3R)-3-aminopyrrolidin-1-yl]-10-methyl-6,7-dihydro-5H-isoxazolo[5′,4′:6,7]cyclohepta[1,2-d]pyrimidin-2-amine], the “Potency” value on histamine H4 receptor [1] turned out to be 1860 nM.
Still for that read-out and setting: the result for `Nc1nc2c(c(N3CC4CCCNC4C3)n1)CCCc1sc(-c3ccccc3)cc1-2` (stereo not shown) [Example 13, 4-octahydro-6H-pyrrolo[3,4-b]pyridin-6-yl-9-phenyl-6,7-dihydro-5H-thieno[2′,3′:6,7]cyclohepta[1,2-d]pyrimidin-2-amine] reads 700 nM.
As to `CN1CCN(c2nc(N)nc3c2CCc2nn(-c4ccccc4)nc2-3)CC1` [Example 20, 6-(4-methylpiperazin-1-yl)-2-phenyl-4,5-dihydro-2H-[1,2,3]triazolo[4,5-h]quinazolin-8-amine], the Ki at histamine H4 receptor [2] was determined as 1300 nM.
In the case of `Cn1ncc2c1CCCc1c-2nc(N)nc1N1CC[C@@H](N)C1` [Example 9, 4-[(3R)-3-aminopyrrolidin-1-yl]-8-methyl-5,6,7,8-tetrahydropyrazolo[3′,4′:6,7]cyclohepta[1,2-d]pyrimidin-2-amine], at histamine H4 receptor [1], the “Potency” value turned out to be 105 nM. Moreover, the Ki on histamine H4 receptor [2] was 426 nM.
Regarding `CN[C@@H]1CCN(c2nc(N)nc3c2CCCc2c-3cnn2-c2ccccc2)C1` [Example 11, 4-[(3R)-3-(methylamino)pyrrolidin-1-yl]-8-phenyl-5,6,7,8-tetrahydropyrazolo[3′,4′:6,7]cyclohepta[1,2-d]pyrimidin-2-amine], the “Potency” value at histamine H4 receptor [1] is 46 nM.
The same measure, in the same setting: the result for `Nc1nc2c(c(N3CC4CCCNC4C3)n1)CCCc1sc(Br)cc1-2` (stereo not shown) [Example 12, 9-bromo-4-octahydro-6H-pyrrolo[3,4-b]pyridin-6-yl-6,7-dihydro-5H-thieno[2′,3′:6,7]cyclohepta[1,2-d]pyrimidin-2-amine] reads 35 nM.
For the compound `CN[C@@H]1CCN(c2nc(N)nc3c2CCCc2sccc2-3)C1` [Example 3, 4-[(3R)-3-(methylamino)pyrrolidin-1-yl]-6,7-dihydro-5H-thieno[2′,3′:6,7]cyclohepta[1,2-d]pyrimidin-2-amine], the “Potency” value on histamine H4 receptor [1] was determined as 3.7 nM. The Ki on histamine H4 receptor [2] came to 8.8 nM.
For `CN1CCN(c2nc(N)nc3c2CCCc2c-3cnn2C)CC1` [Example 8, 8-methyl-4-(4-methylpiperazin-1-yl)-5,6,7,8-tetrahydropyrazolo[3′,4′:6,7]cyclohepta[1,2-d]pyrimidin-2-amine], the “Potency” value on histamine H4 receptor [1] is reported as 107 nM.
As for `CN1CCN(c2nc(N)nc3c2CCc2sccc2-3)CC1` [Example 21, 4-(4-methylpiperazin-1-yl)-5,6-dihydrothieno[2,3-h]quinazolin-2-amine], the Ki at histamine H4 receptor [2] was determined as 80 nM.
